As a reminder, the pIC50 is the IC50 on a negative log10 scale, so that one unit is a factor of ten.

These results are taken from ChEMBL document CHEMBL3421568, “Discovery and preliminary evaluation of 2-aminobenzamide and hydroxamate derivatives containing 1,2,4-oxadiazole moiety as potent histone deacetylase inhibitors” (Eur J Med Chem, 2015).

pIC50: −log10 of the molar value.

In assay [1] the target is T1, Histone deacetylase 8 (Homo sapiens, UniProt Q9BY41).
T1 sequence (Q9BY41 whole entry): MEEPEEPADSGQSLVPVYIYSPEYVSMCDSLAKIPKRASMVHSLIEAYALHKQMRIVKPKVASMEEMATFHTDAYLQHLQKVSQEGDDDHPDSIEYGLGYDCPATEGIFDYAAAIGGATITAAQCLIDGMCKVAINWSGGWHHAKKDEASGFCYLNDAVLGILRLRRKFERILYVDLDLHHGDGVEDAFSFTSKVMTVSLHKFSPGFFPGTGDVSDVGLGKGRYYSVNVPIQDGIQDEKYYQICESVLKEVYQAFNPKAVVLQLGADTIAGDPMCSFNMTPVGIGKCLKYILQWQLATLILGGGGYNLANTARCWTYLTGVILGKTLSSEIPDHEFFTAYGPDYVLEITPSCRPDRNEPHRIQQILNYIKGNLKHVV
The assay is described as follows: Inhibition of recombinant HDAC8 (unknown origin) using fluorogenic substrate Boc-Lys (acetyl)-AMC after 20 mins by homogeneous fluorescence release assay.

A short description of assay [2]: cells. The format is functional, cell-based. Particulars: Homo sapiens, U-937, 72 h.
Description: Antiproliferative activity against human U937 cells assessed as inhibition of cell growth after 72 hrs by MTT-based assay
Assay [3] has as its system NCI-H661. The assay is described as follows: Antiproliferative activity against human NCI-H661 cells assessed as inhibition of cell growth after 72 hrs by MTT-based assay. The assay is classed as functional. Particulars: NCI-H661, 72 h. Background: Tetrazolium assays rely on reduction of a dye to a coloured formazan, in cell work by metabolically active cells.
The subject of assay [4] is A549. In words: Antiproliferative activity against human A549 cells assessed as inhibition of cell growth after 72 hrs by MTT-based assay. The format is functional. Particulars: A549, 72 h.
The test system of assay [5] is MDA-MB-231. In words: cells. Particulars: Homo sapiens, MDA-MB-231, 72 h. The format is functional, cell-based.
Description: Antiproliferative activity against human MDA-MB-231 cells assessed as inhibition of cell growth after 72 hrs by MTT-based assay
Assay [6] concerns the target Histone deacetylase 1 (Homo sapiens, UniProt Q13547). The assay is described as follows: Inhibition of recombinant HDAC1 (unknown origin) using fluorogenic substrate Boc-Lys (acetyl)-AMC after 20 mins by homogeneous fluorescence release assay.
Assay [7] deals with Histone deacetylase 2 (Homo sapiens, UniProt Q92769). The assay is described as follows: Inhibition of recombinant HDAC2 (unknown origin) using fluorogenic substrate Boc-Lys (acetyl)-AMC after 20 mins by homogeneous fluorescence release assay.
Assay [8] in a line: cells. The format is functional, cell-based. The conditions noted are these: Homo sapiens, HCT-116, 72 h.
Description: Antiproliferative activity against human HCT116 cells assessed as inhibition of cell growth after 72 hrs by MTT-based assay

Chain of Histone deacetylase 1 (Q13547 whole entry): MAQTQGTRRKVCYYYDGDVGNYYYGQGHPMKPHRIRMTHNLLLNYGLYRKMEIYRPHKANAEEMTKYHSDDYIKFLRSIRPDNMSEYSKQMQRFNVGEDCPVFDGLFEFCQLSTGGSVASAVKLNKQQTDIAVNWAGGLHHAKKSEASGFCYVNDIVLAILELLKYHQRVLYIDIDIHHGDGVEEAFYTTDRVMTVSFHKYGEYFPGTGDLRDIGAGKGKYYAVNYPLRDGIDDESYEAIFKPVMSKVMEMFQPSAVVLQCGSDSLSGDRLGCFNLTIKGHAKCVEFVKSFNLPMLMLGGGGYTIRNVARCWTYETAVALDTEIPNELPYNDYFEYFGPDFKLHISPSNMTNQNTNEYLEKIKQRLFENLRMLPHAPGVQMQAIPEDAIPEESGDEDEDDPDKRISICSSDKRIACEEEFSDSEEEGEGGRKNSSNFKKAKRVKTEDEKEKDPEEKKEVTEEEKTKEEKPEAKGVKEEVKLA
Chain of Histone deacetylase 2 (Q92769 whole entry): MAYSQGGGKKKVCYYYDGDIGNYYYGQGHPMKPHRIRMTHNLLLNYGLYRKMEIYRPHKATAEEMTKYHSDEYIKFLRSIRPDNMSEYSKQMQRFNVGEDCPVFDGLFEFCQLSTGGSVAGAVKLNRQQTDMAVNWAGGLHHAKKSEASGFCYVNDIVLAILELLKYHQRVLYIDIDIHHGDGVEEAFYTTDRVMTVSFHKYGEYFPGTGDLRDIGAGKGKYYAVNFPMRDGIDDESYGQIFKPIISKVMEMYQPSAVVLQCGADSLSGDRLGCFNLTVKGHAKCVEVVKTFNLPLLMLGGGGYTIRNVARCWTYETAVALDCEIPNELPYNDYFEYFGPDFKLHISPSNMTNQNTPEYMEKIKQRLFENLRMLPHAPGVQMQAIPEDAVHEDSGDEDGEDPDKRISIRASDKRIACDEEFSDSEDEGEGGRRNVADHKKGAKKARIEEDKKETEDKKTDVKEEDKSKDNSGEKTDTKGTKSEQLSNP

As for `Nc1ccccc1NC(=O)c1ccc(CNCc2nc(-c3ccccc3)no2)cc1`, the negative logarithm of the IC50 (pIC50) is under 5.00 in assay [1]; 5.79 in assay [2]; 4.93 in assay [3]; 4.97 in assay [4]; 5.11 in assay [5]; 6.55 in assay [6]. Besides, the pIC50 in assay [7] was 6.28; in assay [8], 5.06.
For `Cc1ccc(-c2noc(CNCc3ccc(C(=O)Nc4ccccc4N)cc3)n2)cc1`, the pIC50 in assay [1] was under 5.00; in assay [2], 6.01; in assay [3], 5.13; in assay [4], 5.01; in assay [5] it was 5.24; in assay [6] it was 6.68. For the same molecule, the pIC50 in assay [7] is 6.25; in assay [8] it was 5.18.
Consider `COc1ccc(-c2noc(CNCc3ccc(C(=O)Nc4ccccc4N)cc3)n2)cc1`, for which the pIC50 was under 5.00 in assay [1]; 5.96 in assay [2]; 5.24 in assay [3]; 5.10 in assay [4]; 5.26 in assay [5]; 6.74 in assay [6]. Further, the values for the pIC50 in assay [7] and in assay [8] were 6.54 and 5.36, respectively.
On to `Nc1ccccc1NC(=O)c1ccc(CNCc2nc(-c3ccc(C(F)(F)F)cc3)no2)cc1`, for which the pIC50 was under 5.00 in assay [1]; 5.59 in assay [2]; 4.63 in assay [3]; 4.00 in assay [4]; 5.16 in assay [5]; 5.56 in assay [6]. The pIC50 is 5.23 in assay [7] and 4.71 in assay [8].
As to `Nc1ccccc1NC(=O)c1ccc(CNCc2nc(-c3ccc(Cl)cc3)no2)cc1`, the pIC50 was under 5.00 in assay [1]; 6.37 in assay [2]; 5.10 in assay [3]; 4.87 in assay [4]; 5.29 in assay [5]; 7.05 in assay [6]. Moreover, the pIC50 is 6.37 in assay [7] and 5.17 in assay [8].
Turning to `Nc1ccccc1NC(=O)c1ccc(CNCc2nc(-c3ccc([N+](=O)[O-])cc3)no2)cc1`, the pIC50 was under 5.00 in assay [1]; 6.28 in assay [2]; 5.33 in assay [3]; 5.19 in assay [4]; 5.50 in assay [5]; 7.22 in assay [6]. Also, the values for the pIC50 in assay [7] and in assay [8] were 6.82 and 5.63, respectively.
For `Nc1ccccc1NC(=O)c1ccc(CNCc2nc(-c3ccc(F)cc3)no2)cc1`, the negative-log IC50 (pIC50) in assay [1] is under 5.00; in assay [2], 5.90; in assay [3], 5.36; in assay [4], 4.97; in assay [5] it was 5.53; in assay [6], 6.96. The negative-log IC50 (pIC50) was 6.55 in assay [7] and 5.45 in assay [8].
Take `Nc1ccccc1NC(=O)c1ccc(CNCc2nc(-c3cccs3)no2)cc1`: the negative-log IC50 (pIC50) is under 5.00 in assay [1]; 5.22 in assay [2]; 4.45 in assay [3]; under 4.00 in assay [4]; 4.99 in assay [5]; 5.41 in assay [6]. The pIC50 in assay [7] was 5.36; in assay [8], 4.57.
As for `Nc1ccccc1NC(=O)c1ccc(CNCc2nc(-c3cccnc3)no2)cc1`, the pIC50 in assay [1] was under 5.00; in assay [2], 4.96; in assay [3], 4.00; in assay [4], under 4.00; in assay [5], 4.67; in assay [6] it was 5.28. Further, the pIC50 in assay [7] is 5.08; in assay [8], 4.36.
Consider `Nc1ccccc1NC(=O)c1ccc(CNCc2nc(-c3ccccc3Cl)no2)cc1`, for which the pIC50 is under 5.00 in assay [1]; 6.42 in assay [2]; 5.48 in assay [3]; 5.10 in assay [4]; 5.45 in assay [5]; 7.15 in assay [6]. Also, the pIC50 was 6.49 in assay [7] and 5.91 in assay [8].
In the case of `O=C(NO)c1ccc(CNCc2nc(-c3ccccc3)no2)cc1`, the negative logarithm of the IC50 (pIC50) in assay [1] is 6.70; in assay [2], 5.14; in assay [3] it was under 4.00; in assay [4], under 4.00; in assay [5], 4.83; in assay [6] it was 5.24. Moreover, the pIC50 was under 5.00 in assay [7] and 4.53 in assay [8].
Take `Cc1ccc(-c2noc(CNCc3ccc(C(=O)NO)cc3)n2)cc1`: the negative-log IC50 (pIC50) in assay [1] was 5.90; in assay [2] it was 5.11; in assay [3] it was under 4.00; in assay [4], under 4.00; in assay [5], 4.81; in assay [6], 5.16. The negative logarithm of the IC50 (pIC50) is under 5.00 in assay [7] and 4.56 in assay [8].
For the molecule `COc1ccc(-c2noc(CNCc3ccc(C(=O)NO)cc3)n2)cc1`, the pIC50 was 6.07 in assay [1]; 5.46 in assay [2]; under 4.00 in assay [3]; under 4.00 in assay [4]; 5.05 in assay [5]; 5.08 in assay [6]. The pIC50 in assay [7] is under 5.00; in assay [8], 4.73.
Take `O=C(NO)c1ccc(CNCc2nc(-c3ccc(C(F)(F)F)cc3)no2)cc1`: the negative-log IC50 (pIC50) is 5.87 in assay [1]; 5.09 in assay [2]; under 4.00 in assay [3]; under 4.00 in assay [4]; 4.91 in assay [5]; 5.02 in assay [6]. The values for the negative-log IC50 (pIC50) in assay [7] and in assay [8] were under 5.00 and 4.37, respectively.
Turning to `O=C(NO)c1ccc(CNCc2nc(-c3ccc(Cl)cc3)no2)cc1`, the negative-log IC50 (pIC50) is 6.46 in assay [1]; 5.28 in assay [2]; under 4.00 in assay [3]; under 4.00 in assay [4]; 4.96 in assay [5]; 5.41 in assay [6]. Also, the pIC50 in assay [7] is 5.07; in assay [8] it was 4.52.
In the case of `O=C(NO)c1ccc(CNCc2nc(-c3ccc([N+](=O)[O-])cc3)no2)cc1`, the pIC50 in assay [1] is 6.42; in assay [2] it was 5.19; in assay [3] it was under 4.00; in assay [4], under 4.00; in assay [5], 5.02; in assay [6] it was 5.57. In addition, the pIC50 in assay [7] was 5.03; in assay [8] it was 4.66.
In the case of `O=C(NO)c1ccc(CNCc2nc(-c3ccc(F)cc3)no2)cc1`, the pIC50 in assay [1] is 6.64; in assay [2], 5.53; in assay [3], under 4.00; in assay [4], under 4.00; in assay [5], 5.04; in assay [6], 5.45. Further, the negative-log IC50 (pIC50) in assay [7] was 5.11; in assay [8] it was 4.75.
On to `O=C(NO)c1ccc(CNCc2nc(-c3cccs3)no2)cc1`, for which the negative logarithm of the IC50 (pIC50) in assay [1] was 5.08; in assay [2], 4.97; in assay [3] it was under 4.00; in assay [4], under 4.00; in assay [5], 4.62; in assay [6] it was under 5.00. The negative-log IC50 (pIC50) was under 5.00 in assay [7] and under 4.00 in assay [8].
Consider `Nc1ccccc1NC(=O)c1ccc(CNC(=O)OCc2cccnc2)cc1` [ENTINOSTAT], for which the pIC50 was 6.26 in assay [2]; 5.66 in assay [3]; 5.27 in assay [4]; 5.33 in assay [5]; 6.11 in assay [8].
Turning to `O=C(CCCCCCC(=O)Nc1ccccc1)NO` [VORINOSTAT], the pIC50 in assay [3] is 6.89.
